Experimental data reported in ChEMBL document CHEMBL3286195, “Discovery of (10R)-7-amino-12-fluoro-2,10,16-trimethyl-15-oxo-10,15,16,17-tetrahydro-2H-8,4-(metheno)pyrazolo[4,3-h][2,5,11]-benzoxadiazacyclotetradecine-3-carbonitrile (PF-06463922), a macrocyclic inhibitor of anaplastic lymphoma kinase (ALK) and c-ros oncogene 1 (ROS1) with preclinical brain …” (J Med Chem, 2014).
Blank lines part the entries; values can stand above or below the molecule they belong to.

How the values were obtained:
in vitro = details: human, liver microsomes
Description: Apparent total intrinsic clearance in human liver microsomes

physchem = details: octanol/water, pH 7.4
[1] = target: ALK tyrosine kinase receptor (Homo sapiens, UniProt Q9UM73)
[2] = target: ALK tyrosine kinase receptor (Homo sapiens, UniProt Q9UM73, L1196M)
MDR1 = assay: in vitro; details: dog, MDCK-MDR1, pH 7.4
Description: Efflux ratio of permeability from basolateral to apical side to apical to basolateral side of MDCK cells expressing MDR1 at pH 7.4

[3] = target: BDNF/NT-3 growth factors receptor (Homo sapiens, UniProt Q16620)
Description: Inhibition of TRKB (unknown origin) by off-chip mobility shift assay

[4] = Volume of distribution at steady state in rat at 1 mg/kg, iv qd; assay type: ADME, organism-based; design: dose 1 mg/kg, route intravenous; details: in vivo, read-out: Vdss
Plasma [5] = assay: fAUC in rat plasma at 10 mg/kg, po; assay type: ADME, organism-based; design: dose 10 mg/kg, route oral; details: in vivo
[6] = Half life in rat at 1 mg/kg, iv qd; assay type: ADME, organism-based; design: dose 1 mg/kg, route intravenous; details: in vivo
[7] = AUC in rat brain at 10 mg/kg, po; assay type: ADME, organism-based; design: dose 10 mg/kg, route oral
Rattus norvegicus = assay: fCmax in rat at 10 mg/kg, po qd; assay type: ADME, organism-based; design: dose 10 mg/kg, route oral; details: in vivo
[8] = target: Tyrosine-protein kinase Fes/Fps (Homo sapiens, UniProt P07332); assay: Inhibition of FES (unknown origin) by TR-FRET-based Z'-LYTE assay
[9] = AUC (infinity) in rat at 1 mg/kg, iv qd; assay type: ADME, organism-based; design: time infinity, dose 1 mg/kg, route intravenous; details: plasma
[10] = AUC in rat plasma at 10 mg/kg, po; assay type: ADME, organism-based; design: dose 10 mg/kg, route oral
[11] = target: Tyrosine-protein kinase Fer (Homo sapiens, UniProt P16591); assay: Inhibition of FER (unknown origin) by TR-FRET-based Z'-LYTE assay
[12] = target: High affinity nerve growth factor receptor (Homo sapiens, UniProt P04629); assay: Inhibition of […] (unknown origin) by TR-FRET-based Z'-LYTE assay
Plasma [13] = assay: Average plasma concentration in rat at 10 mg/kg, po qd; assay type: ADME, organism-based; design: dose 10 mg/kg, route oral; details: in vivo
[14] = Cmax in rat at 10 mg/kg, po qd; assay type: ADME, organism-based; design: dose 10 mg/kg, route oral; details: in vivo
[15] = Fraction unbound in rat brain at 2.4 uM; assay type: ADME, tissue-based
Focal adhesion kinase 1 = Focal adhesion kinase 1 (Homo sapiens, UniProt Q05397)
Description: Inhibition of PTK2 (unknown origin) by TR-FRET-based Z'-LYTE assay

[16] = target: Tyrosine-protein kinase FRK (Homo sapiens, UniProt P42685); assay: Inhibition of FRK (unknown origin) by TR-FRET-based Z'-LYTE assay
Brain = assay: fAUC in rat brain at 10 mg/kg, po; assay type: ADME, organism-based; design: dose 10 mg/kg, route oral; details: in vivo
[17] = AUC in rat CSF at 10 mg/kg, po; assay type: ADME, organism-based, Plasma; design: dose 10 mg/kg, route oral
[18] = Tmax in rat at 10 mg/kg, po qd; assay type: ADME, organism-based; design: dose 10 mg/kg, route oral; details: in vivo
[19] = AUC (0 to 24 hrs) in rat at 10 mg/kg, po qd; assay type: ADME, organism-based; design: time < 24 hr, dose 10 mg/kg, route oral; details: plasma
[20] = fAUC in rat CSF at 10 mg/kg, po; assay type: ADME, organism-based, Cerebrospinal fluid; design: dose 10 mg/kg, route oral; details: in vivo
Activated CDC42 kinase 1 = Activated CDC42 kinase 1 (Homo sapiens, UniProt Q07912)
Description: Inhibition of TNK2 (unknown origin) by TR-FRET-based Z'-LYTE assay

[21] = target: Protein-tyrosine kinase 2-beta (Homo sapiens, UniProt Q14289)
Description: Inhibition of PTK2B (unknown origin) by TR-FRET-based Z'-LYTE assay

[22] = Plasma clearance in rat at 1 mg/kg, iv qd; assay type: ADME, organism-based; design: dose 1 mg/kg, route intravenous
[23] = target: Leukocyte tyrosine kinase receptor (Homo sapiens, UniProt P29376); assay: Inhibition of LTK (unknown origin) by TR-FRET-based Z'-LYTE assay
[24] = target: NT-3 growth factor receptor (Homo sapiens, UniProt Q16288)
Description: Inhibition of NRTK3 (unknown origin) by TR-FRET-based Z'-LYTE assay

[25] = Oral bioavailability in rat at 10 mg/kg qd; assay type: ADME, organism-based; details: in vivo
[26] = Fraction unbound in rat plasma at 2.4 uM; assay type: ADME, cell-free

Chain of BDNF/NT-3 growth factors receptor (Q16620 whole entry): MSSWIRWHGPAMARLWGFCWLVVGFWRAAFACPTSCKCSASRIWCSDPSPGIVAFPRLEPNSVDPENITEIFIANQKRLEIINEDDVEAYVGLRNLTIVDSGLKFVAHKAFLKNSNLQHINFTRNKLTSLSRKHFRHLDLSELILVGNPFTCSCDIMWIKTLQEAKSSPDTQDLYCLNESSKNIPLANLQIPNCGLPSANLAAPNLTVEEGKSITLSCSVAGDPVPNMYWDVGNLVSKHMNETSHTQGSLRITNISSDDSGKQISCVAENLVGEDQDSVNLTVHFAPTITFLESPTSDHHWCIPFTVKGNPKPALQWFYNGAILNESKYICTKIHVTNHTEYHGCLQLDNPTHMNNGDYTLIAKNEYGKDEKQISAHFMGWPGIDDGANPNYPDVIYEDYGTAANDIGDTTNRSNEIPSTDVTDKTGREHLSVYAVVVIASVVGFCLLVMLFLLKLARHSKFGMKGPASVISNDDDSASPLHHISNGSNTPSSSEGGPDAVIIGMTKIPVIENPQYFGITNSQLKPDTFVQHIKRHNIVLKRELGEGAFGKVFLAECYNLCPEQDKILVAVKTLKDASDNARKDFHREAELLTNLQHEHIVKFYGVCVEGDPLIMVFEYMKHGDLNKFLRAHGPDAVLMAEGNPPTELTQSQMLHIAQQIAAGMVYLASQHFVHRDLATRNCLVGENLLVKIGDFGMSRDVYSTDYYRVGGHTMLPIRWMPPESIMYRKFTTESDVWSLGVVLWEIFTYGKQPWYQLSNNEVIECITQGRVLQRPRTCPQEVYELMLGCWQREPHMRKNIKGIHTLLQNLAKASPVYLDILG
Chain of Focal adhesion kinase 1 (Q05397 whole entry): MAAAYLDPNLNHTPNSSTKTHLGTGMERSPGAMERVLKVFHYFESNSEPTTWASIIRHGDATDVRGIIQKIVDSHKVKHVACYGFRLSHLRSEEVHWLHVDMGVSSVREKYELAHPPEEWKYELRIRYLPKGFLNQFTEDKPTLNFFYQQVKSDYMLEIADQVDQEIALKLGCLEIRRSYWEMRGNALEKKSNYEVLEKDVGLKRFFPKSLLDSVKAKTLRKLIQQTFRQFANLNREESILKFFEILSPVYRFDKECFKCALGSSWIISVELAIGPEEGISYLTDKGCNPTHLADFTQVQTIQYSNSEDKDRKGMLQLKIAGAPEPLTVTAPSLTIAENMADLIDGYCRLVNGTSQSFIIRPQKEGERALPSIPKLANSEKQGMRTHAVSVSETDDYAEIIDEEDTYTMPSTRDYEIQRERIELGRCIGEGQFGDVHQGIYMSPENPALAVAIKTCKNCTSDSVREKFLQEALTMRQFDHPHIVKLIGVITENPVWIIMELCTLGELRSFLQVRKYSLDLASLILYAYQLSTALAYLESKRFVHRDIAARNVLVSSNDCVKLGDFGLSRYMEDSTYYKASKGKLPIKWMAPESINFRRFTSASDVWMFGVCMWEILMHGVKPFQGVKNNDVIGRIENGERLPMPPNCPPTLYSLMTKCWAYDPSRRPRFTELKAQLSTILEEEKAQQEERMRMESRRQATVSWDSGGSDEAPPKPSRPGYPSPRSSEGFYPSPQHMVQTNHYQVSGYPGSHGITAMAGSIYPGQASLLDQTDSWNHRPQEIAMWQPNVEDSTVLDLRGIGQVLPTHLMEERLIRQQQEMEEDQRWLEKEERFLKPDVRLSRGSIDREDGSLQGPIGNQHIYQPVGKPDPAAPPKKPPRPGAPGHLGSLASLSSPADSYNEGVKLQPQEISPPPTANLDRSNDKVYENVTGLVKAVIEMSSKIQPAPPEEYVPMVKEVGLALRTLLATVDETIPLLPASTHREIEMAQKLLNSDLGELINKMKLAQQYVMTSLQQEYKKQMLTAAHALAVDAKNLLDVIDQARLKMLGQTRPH
Chain of Leukocyte tyrosine kinase receptor (P29376 whole entry): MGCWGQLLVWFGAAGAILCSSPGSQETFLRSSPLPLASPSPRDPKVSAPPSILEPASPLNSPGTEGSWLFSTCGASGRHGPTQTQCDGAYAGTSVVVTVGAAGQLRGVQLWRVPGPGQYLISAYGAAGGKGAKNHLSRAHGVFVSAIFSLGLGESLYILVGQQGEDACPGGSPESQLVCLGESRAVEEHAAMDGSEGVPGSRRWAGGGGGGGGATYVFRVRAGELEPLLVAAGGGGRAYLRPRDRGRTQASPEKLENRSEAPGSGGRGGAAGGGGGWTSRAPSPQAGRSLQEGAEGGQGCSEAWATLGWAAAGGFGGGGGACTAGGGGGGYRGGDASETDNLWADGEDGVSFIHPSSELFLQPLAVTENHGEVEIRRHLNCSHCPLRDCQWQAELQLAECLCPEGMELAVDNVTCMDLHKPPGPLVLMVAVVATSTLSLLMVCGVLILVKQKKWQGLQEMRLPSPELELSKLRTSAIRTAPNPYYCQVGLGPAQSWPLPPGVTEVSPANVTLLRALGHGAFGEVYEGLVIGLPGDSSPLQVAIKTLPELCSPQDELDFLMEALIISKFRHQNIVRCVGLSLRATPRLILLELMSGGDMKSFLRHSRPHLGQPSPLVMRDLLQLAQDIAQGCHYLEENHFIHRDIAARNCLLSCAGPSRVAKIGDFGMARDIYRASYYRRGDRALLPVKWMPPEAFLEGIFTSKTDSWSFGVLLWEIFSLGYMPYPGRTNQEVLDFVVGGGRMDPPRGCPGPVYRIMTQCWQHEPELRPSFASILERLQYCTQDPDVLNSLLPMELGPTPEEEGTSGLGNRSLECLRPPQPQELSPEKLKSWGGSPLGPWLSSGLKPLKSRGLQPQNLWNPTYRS
Chain of ALK tyrosine kinase receptor (Homo sapiens, UniProt Q9UM73) (Q9UM73 whole entry): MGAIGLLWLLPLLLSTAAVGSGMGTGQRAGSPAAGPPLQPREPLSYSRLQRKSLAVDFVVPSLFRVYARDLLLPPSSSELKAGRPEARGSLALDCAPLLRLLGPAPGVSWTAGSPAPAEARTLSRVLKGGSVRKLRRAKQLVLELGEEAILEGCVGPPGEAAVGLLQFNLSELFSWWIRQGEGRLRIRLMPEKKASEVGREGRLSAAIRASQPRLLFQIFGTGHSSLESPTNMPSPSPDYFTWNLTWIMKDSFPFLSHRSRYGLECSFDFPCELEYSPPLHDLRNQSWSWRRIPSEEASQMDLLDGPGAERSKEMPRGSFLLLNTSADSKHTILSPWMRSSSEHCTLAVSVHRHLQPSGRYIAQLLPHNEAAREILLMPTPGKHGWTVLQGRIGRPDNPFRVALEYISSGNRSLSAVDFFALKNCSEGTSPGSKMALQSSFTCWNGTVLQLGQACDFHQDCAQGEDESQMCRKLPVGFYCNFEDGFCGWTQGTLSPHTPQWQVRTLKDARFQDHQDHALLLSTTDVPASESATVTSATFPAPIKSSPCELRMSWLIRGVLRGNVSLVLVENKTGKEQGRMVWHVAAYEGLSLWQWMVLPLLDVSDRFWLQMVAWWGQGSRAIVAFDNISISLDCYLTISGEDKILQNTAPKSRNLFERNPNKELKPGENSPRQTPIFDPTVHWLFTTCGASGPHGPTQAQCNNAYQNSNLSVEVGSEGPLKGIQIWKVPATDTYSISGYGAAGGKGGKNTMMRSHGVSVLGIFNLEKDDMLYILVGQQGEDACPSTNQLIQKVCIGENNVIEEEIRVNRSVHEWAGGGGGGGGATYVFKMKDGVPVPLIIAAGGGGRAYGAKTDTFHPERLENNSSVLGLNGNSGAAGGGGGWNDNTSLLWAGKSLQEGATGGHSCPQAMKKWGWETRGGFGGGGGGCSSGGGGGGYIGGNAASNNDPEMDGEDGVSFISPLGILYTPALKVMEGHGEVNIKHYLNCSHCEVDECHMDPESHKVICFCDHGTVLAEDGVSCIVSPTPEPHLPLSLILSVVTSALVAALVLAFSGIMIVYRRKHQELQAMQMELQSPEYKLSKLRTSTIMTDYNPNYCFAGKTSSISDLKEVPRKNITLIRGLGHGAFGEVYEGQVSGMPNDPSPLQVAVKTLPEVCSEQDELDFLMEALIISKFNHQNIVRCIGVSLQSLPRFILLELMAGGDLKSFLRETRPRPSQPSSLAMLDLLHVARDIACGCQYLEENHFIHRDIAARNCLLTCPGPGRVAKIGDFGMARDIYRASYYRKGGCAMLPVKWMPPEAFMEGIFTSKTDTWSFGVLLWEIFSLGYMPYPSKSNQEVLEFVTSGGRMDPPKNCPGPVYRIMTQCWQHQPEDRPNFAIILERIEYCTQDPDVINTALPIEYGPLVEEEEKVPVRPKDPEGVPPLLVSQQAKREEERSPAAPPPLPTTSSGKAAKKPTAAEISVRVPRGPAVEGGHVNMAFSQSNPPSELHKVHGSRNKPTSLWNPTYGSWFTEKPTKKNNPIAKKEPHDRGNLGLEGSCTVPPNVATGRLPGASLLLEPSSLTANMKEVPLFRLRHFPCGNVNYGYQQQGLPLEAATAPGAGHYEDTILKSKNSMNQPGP
Chain of Tyrosine-protein kinase FRK (P42685 whole entry): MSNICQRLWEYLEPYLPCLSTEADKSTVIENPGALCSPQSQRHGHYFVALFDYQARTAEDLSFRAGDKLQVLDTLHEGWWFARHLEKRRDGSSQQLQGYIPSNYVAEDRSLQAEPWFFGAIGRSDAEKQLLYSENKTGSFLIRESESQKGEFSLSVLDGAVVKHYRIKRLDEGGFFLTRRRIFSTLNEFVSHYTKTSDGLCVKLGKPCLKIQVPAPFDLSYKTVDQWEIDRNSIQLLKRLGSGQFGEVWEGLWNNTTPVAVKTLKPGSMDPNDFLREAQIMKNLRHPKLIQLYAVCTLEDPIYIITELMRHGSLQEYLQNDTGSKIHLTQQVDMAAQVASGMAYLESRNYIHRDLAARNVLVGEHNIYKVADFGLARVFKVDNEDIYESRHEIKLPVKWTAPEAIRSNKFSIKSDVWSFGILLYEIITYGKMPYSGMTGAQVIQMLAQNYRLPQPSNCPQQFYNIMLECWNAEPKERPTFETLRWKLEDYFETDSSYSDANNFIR

SMILES: C[C@@H](Oc1cc(-c2cnnn2C)cnc1N)c1cc(F)ccc1-n1nccn1
- CLint scaled (in vitro): 8 mL/min/kg

SMILES: COc1ccc(F)cc1[C@@H](C)Oc1cc(-c2cnnn2C)cnc1N
- CLint scaled (in vitro): 25 mL/min/kg
- logD (physchem): 2.4

SMILES: CNC(=O)c1ccc(F)cc1[C@@H](C)Oc1cc(-c2cn(C)nc2C)cnc1N
- CLint scaled (in vitro): 28 mL/min/kg
- logD (physchem): 2.1

SMILES: Cc1nn(C)cc1-c1cnc(N)c(O[C@H](C)c2cc(F)ccc2C(=O)N(C)C)c1
- Ki [1]: 22 nM
- Ki [2]: 310 nM
- CLint scaled (in vitro): 58 mL/min/kg
- logD (physchem): 2.1
- efflux ratio (MDR1): 7.6

SMILES: CNC(=O)c1ccc(F)cc1[C@@H](C)Oc1nc(-c2cccnc2OC)cnc1N
- CLint scaled (in vitro): 76 mL/min/kg
- logD (physchem): 3

SMILES: C[C@@H](Oc1cc(-c2cccc(S(C)(=O)=O)c2)cnc1N)c1cc(F)ccc1-n1nccn1
- CLint scaled (in vitro): 10 mL/min/kg
- logD (physchem): 3.4

SMILES: N#Cc1[nH]nc2c1-c1cnc(N)c(c1)OCc1cc(F)ccc1OCC2
- logD (physchem): 3

SMILES: C[C@H]1Oc2cc(cnc2N)-c2c(nn(C)c2C#N)CCCOc2ccc(F)cc21
- logD (physchem): 3.8

SMILES: Cc1nn(C)c2c1-c1cnc(N)c(c1)O[C@H](C)c1cc(F)ccc1C(=O)N(C)C2
- CLint scaled (in vitro): 8.6 mL/min/kg
- logD (physchem): 2.2
- Ki [3]: 0.5 nM

SMILES: Cc1nn(C)c2c1-c1cnc(N)c(c1)OCc1cc(F)ccc1C(=O)N(C)C2
- CLint scaled (in vitro): 8.4 mL/min/kg
- logD (physchem): 2

SMILES: Cc1nn(C)c2c1-c1cnc(N)c(n1)O[C@H](C)c1cc(F)ccc1C(=O)N(C)C2
- CLint scaled (in vitro): 8 mL/min/kg
- logD (physchem): 2.5

SMILES: COc1nn(C)c2c1-c1cnc(N)c(n1)O[C@H](C)c1cc(F)ccc1C(=O)N(C)C2
- CLint scaled (in vitro): 23.5 mL/min/kg
- logD (physchem): 2.7

SMILES: C[C@H]1Oc2cc(cnc2N)-c2cc(S(C)(=O)=O)ccc2CN(C)C(=O)c2ccc(F)cc21
- CLint scaled (in vitro): 9.1 mL/min/kg
- logD (physchem): 1.8

SMILES: C[C@H]1Oc2nc(cnc2N)-c2cc(S(C)(=O)=O)ccc2CN(C)C(=O)c2ccc(F)cc21
- CLint scaled (in vitro): 8 mL/min/kg
- logD (physchem): 2.2

SMILES: C[C@H]1Oc2cc(cnc2N)-c2c(C3CC3)nn(C)c2CN(C)C(=O)c2ccc(F)cc21
- CLint scaled (in vitro): 14.6 mL/min/kg
- logD (physchem): 2.9
- Ki [3]: 0.4 nM

SMILES: Cc1cnc2nc3c(n2c1)-c1cnc(N)c(c1)O[C@H](C)c1cc(F)ccc1C(=O)N(C)C3
- CLint scaled (in vitro): < 8 mL/min/kg
- logD (physchem): 1.7
- Ki [3]: 77 nM
- efflux ratio (MDR1): 20.2

SMILES: C[C@H]1Oc2nc(cnc2N)-c2c(nc3ccc(C#N)cn23)CN(C)C(=O)c2ccc(F)cc21
- CLint scaled (in vitro): < 8 mL/min/kg
- logD (physchem): 2.4
- Ki [3]: 65 nM

SMILES: C[C@H]1Oc2cc(cnc2N)-c2c(nn(C)c2C#N)CN(C)C(=O)c2ccc(F)cc21 [LORLATINIB]
- Vd [4]: 2.7 L/kg
- fAUC (Plasma [5]): 11.052 µM·h
- half-life [6]: 2.7 h
- AUC [7]: 19.6 µM·h
- fCmax (Rattus norvegicus): 1530 nM
- IC50 [8]: 6 nM
- AUC(0-inf) [9]: 1150 ng·h/mL
- AUC [10]: 30.7 µM·h
- IC50 [11]: 3.3 nM
- IC50 [12]: 24 nM
- Cave (Plasma [13]): 551 nM
- Cmax [14]: 1730 ng/mL
- fraction unbound at 2.4 µM [15]: 0.12
- IC50 (Focal adhesion kinase 1): 17 nM
- IC50 [16]: 53 nM
- fAUC (Brain): 2.355 µM·h
- AUC [17]: 3.48 µM·h
- CLint scaled (in vitro): < 8 mL/min/kg
- Tmax [18]: 1.3 h
- AUC at 24 h [19]: 14900 ng·h/mL
- fAUC [20]: 3.475 µM·h
- IC50 (Activated CDC42 kinase 1): 17 nM
- IC50 [21]: 14 nM
- clearance [22]: 15.5 mL/min/kg
- IC50 [23]: 2.7 nM
- IC50 [24]: 46 nM
- bioavailability [25]: 100%
- logD (physchem): 2.3
- fraction unbound at 2.4 µM [26]: 0.36

The remaining lines, values ahead:

- CLint scaled (in vitro): 13 mL/min/kg
SMILES: Cc1nc([C@](C)(O)CO)sc1-c1cnc(N)c(O[C@H](C)c2cc(F)ccc2-n2nccn2)c1

- CLint scaled (in vitro): 66 mL/min/kg
SMILES: Cc1nn(C)cc1-c1cnc(N)c(O[C@H](C)c2cc(F)ccc2-n2nccn2)c1

- CLint scaled (in vitro): 41 mL/min/kg
- logD (physchem): 4
SMILES: COc1ncccc1-c1cnc(N)c(O[C@H](C)c2cc(F)ccc2-n2nccn2)n1

- logD (physchem): 3.6
SMILES: N#Cc1[nH]nc2c1-c1cnc(N)c(c1)OCc1cc(F)ccc1OCCC2

- logD (physchem): 3.4
SMILES: Cn1ncc2c1-c1cnc(N)c(c1)OCc1cc(F)ccc1OCCC2

- logD (physchem): 3.1
SMILES: Cn1ncc2c1-c1cnc(N)c(c1)OCc1cc(F)ccc1OCCCC2

- logD (physchem): 3.3
SMILES: C[C@H]1Oc2cc(cnc2N)-c2c(nn(C)c2C#N)CCOc2ccc(F)cc21

- CLint scaled (in vitro): 8 mL/min/kg
- logD (physchem): 2.2
SMILES: Cc1nn(C)c2c1-c1cnc(N)c(c1)O[C@@H](C)c1cc(F)ccc1C(=O)N(C)C2

- CLint scaled (in vitro): 9.7 mL/min/kg
- logD (physchem): 2.5
SMILES: Cc1nn(C)c2c1-c1cnc(N)c(n1)O[C@@H](C)c1cc(F)ccc1C(=O)N(C)C2

- CLint scaled (in vitro): 8.3 mL/min/kg
- logD (physchem): 2.4
SMILES: COc1nn(C)c2c1-c1cnc(N)c(c1)O[C@H](C)c1cc(F)ccc1C(=O)N(C)C2
